These results are taken from PMC4004252 (Journal of the American Chemical Society, 2014).

In test [1] the target is T1, Top1 (Homo sapiens, UniProt P11387).
T1 sequence (P11387 1-765): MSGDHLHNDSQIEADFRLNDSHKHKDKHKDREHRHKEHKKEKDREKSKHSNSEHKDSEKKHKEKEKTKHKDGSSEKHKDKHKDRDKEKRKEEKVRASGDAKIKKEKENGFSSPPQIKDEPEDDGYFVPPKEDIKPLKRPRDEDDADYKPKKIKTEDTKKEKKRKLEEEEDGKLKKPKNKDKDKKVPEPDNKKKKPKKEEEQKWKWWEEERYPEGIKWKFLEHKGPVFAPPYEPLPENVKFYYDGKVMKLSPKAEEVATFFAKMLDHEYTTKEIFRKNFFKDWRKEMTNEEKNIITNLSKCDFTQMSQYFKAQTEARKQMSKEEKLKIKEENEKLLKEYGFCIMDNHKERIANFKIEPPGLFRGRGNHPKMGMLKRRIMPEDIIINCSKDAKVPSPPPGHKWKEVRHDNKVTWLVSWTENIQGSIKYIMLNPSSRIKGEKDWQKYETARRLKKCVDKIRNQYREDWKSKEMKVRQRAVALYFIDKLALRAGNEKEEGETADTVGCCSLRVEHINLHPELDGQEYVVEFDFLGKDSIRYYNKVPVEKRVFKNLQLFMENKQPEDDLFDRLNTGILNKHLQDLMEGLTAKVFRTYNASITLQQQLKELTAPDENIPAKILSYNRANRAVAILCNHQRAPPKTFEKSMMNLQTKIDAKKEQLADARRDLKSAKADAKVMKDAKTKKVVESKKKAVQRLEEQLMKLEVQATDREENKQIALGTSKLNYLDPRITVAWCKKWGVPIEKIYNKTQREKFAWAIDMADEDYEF
The class given is biochemical.

Test [2] relates to relaxed pHOT1 plasmid DNA. Briefly: DNA unwinding assay, relaxed pHOT1 as substrate. The test is classed as biochemical. Conditions: 10 units Top1, 37 °C.
The target in test [3] is T1, Top1. The test is described as follows: Standard Top1 scDNA relaxation assay. The test is classed as biochemical.
Test [4] has as its system ctDNA. The test is described as follows: ctDNA absorption spectroscopy titration of ethidium bromide. The test is classed as binding, calf. The conditions noted are these: value for EB in main text.

On to `O=C1c2c(O)ccc(O)c2C(=O)c2c(NCCNCCO)ccc(NCCNCCO)c21` [MTX, mitoxantrone], for which the “dose at which switch to catalytic inhibition of Top1 occurs” value in test [1] lay within 1 to 10 µM. Further, the “PicoGreen relative fluorescence readout” value in test [1] (doses of 0.1 and 1 μM) is listed as “positive”.
As for `COc1cc(NS(C)(=O)=O)ccc1Nc1c2ccccc2nc2ccccc12` [m-AMSA, 4′-(9-acridinylamino)methanesulfon-m-anisidide], the “concentration giving the Gaussian distribution of DNA topoisomers” value in test [2] turned out to be 50 µM. Moreover, the “dose giving complete inhibition of the enzyme” value in test [3] worked out at 50 µM.
With `CC[n+]1c(-c2ccccc2)c2cc(N)ccc2c2ccc(N)cc21` [EB, ethidium bromide], the “KA, ctDNA affinity constant” value in test [4] is 5(1) × 10^6 M^–1 bp.
